Broadly, the IC50 is the concentration that gives 50% inhibition. As usually defined, the Ki is a dissociation constant, usually derived from enzyme kinetics or from competition with a known ligand.

Test [1] deals with T1, Substance-K receptor (Homo sapiens, UniProt P21452).
T1 sequence (P21452 whole entry): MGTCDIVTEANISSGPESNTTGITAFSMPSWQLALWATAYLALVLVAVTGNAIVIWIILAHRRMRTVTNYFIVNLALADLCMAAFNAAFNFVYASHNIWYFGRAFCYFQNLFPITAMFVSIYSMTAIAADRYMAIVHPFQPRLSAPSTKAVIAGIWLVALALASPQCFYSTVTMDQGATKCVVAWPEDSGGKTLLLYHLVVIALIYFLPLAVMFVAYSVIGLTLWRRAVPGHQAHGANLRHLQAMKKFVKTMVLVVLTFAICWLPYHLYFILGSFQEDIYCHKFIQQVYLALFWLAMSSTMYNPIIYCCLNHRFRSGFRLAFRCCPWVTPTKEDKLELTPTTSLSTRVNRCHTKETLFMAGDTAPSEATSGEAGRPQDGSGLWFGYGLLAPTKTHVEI
The format is cell membranes, CHO, Membrane. Conditions: cho.

Test [2] deals with Nitric oxide synthase 1 (Rattus norvegicus, UniProt P29476). The format is tissue-based, Cerebellum.
Test [3] addresses T2, Alpha-1A adrenergic receptor (Rattus norvegicus, UniProt P43140).
T2 sequence (P43140 whole entry): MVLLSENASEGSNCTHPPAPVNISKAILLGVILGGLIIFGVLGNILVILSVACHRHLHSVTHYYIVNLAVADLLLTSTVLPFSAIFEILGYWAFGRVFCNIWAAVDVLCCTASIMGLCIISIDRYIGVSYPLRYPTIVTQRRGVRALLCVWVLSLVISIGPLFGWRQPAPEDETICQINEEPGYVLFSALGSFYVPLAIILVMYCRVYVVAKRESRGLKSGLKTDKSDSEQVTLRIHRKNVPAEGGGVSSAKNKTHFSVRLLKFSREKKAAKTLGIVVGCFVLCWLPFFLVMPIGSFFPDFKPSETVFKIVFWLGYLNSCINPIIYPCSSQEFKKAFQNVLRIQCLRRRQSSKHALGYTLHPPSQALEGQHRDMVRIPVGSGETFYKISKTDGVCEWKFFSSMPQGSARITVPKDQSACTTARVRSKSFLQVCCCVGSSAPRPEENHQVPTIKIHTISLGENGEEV
The test can be described thus: DRUGMATRIX: Alpha-1A adrenergic receptor radioligand binding (ligand: prazosin). The format is cell membranes, Wistar, Submaxillary gland, Membrane. Conditions: Not Active = under 50% inhibition at 10 µM.

The target of test [4] is T3, B2 bradykinin receptor (Homo sapiens, UniProt P30411). Also: in other assays of this panel Not Active means under 50% inhibition at 10 µM.
T3 sequence (P30411 whole entry): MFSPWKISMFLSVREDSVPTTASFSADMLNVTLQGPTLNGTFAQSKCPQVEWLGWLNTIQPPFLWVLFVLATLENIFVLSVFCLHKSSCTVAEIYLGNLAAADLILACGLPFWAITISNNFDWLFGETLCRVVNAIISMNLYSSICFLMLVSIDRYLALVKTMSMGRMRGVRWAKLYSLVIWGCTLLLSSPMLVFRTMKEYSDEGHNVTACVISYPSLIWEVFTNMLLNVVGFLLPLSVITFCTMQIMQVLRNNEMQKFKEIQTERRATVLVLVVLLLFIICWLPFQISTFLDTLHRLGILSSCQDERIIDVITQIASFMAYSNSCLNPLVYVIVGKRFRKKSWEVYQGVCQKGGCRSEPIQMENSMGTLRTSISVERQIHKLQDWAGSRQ
The format is cell membranes, Membrane. The settings on record: chem-1.

The target in test [5] is T4, Neuropeptide Y receptor type 1 (Homo sapiens, UniProt P25929). Also: in other assays of this panel Not Active means under 50% inhibition at 10 µM.
T4 sequence (P25929 whole entry): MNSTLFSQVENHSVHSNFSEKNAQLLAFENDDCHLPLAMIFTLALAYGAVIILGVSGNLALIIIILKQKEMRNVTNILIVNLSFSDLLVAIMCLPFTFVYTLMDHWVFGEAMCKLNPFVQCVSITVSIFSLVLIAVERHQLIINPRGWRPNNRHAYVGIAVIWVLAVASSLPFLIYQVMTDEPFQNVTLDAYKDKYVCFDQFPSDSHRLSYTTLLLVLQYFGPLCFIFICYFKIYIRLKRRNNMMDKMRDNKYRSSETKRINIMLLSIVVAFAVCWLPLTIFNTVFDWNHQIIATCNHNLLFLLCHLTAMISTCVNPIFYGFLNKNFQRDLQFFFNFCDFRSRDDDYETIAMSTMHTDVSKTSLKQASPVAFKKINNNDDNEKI
The format is cell membranes, Membrane. Conditions: sk-n-mc.

In test [6] the target is Receptor tyrosine-protein kinase erbB-2 (Homo sapiens, UniProt P04626). The test can be described thus: biochemical. The format is cell-based, Insect cells. Conditions: insect cells.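 Also: inhibition of HER2 kinase enzyme activity, measured with Poly(Glu:Tyr) as the phosphorylation substrate; in other assays of this panel Not Active means under 50% inhibition at 10 µM.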
For test [7], the target named is T5, Neuropeptide Y receptor type 2 (Homo sapiens, UniProt P49146). Also: in other assays of this panel Not Active means under 50% inhibition at 10 µM.
T5 sequence (P49146 whole entry): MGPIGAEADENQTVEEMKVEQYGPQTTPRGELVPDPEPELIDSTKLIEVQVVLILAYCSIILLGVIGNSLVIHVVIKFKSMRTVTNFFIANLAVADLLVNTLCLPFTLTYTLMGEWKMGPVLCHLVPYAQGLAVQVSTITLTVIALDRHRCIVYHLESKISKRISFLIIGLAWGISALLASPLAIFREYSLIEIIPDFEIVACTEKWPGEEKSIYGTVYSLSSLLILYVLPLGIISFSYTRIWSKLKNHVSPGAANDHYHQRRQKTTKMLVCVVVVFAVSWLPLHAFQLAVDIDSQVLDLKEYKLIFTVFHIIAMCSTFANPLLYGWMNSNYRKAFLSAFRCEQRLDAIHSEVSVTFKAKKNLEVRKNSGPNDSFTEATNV
The format is cell membranes, Membrane. The settings on record: kan-ts.

Nitric oxide synthase 1, sequence (P29476 whole entry): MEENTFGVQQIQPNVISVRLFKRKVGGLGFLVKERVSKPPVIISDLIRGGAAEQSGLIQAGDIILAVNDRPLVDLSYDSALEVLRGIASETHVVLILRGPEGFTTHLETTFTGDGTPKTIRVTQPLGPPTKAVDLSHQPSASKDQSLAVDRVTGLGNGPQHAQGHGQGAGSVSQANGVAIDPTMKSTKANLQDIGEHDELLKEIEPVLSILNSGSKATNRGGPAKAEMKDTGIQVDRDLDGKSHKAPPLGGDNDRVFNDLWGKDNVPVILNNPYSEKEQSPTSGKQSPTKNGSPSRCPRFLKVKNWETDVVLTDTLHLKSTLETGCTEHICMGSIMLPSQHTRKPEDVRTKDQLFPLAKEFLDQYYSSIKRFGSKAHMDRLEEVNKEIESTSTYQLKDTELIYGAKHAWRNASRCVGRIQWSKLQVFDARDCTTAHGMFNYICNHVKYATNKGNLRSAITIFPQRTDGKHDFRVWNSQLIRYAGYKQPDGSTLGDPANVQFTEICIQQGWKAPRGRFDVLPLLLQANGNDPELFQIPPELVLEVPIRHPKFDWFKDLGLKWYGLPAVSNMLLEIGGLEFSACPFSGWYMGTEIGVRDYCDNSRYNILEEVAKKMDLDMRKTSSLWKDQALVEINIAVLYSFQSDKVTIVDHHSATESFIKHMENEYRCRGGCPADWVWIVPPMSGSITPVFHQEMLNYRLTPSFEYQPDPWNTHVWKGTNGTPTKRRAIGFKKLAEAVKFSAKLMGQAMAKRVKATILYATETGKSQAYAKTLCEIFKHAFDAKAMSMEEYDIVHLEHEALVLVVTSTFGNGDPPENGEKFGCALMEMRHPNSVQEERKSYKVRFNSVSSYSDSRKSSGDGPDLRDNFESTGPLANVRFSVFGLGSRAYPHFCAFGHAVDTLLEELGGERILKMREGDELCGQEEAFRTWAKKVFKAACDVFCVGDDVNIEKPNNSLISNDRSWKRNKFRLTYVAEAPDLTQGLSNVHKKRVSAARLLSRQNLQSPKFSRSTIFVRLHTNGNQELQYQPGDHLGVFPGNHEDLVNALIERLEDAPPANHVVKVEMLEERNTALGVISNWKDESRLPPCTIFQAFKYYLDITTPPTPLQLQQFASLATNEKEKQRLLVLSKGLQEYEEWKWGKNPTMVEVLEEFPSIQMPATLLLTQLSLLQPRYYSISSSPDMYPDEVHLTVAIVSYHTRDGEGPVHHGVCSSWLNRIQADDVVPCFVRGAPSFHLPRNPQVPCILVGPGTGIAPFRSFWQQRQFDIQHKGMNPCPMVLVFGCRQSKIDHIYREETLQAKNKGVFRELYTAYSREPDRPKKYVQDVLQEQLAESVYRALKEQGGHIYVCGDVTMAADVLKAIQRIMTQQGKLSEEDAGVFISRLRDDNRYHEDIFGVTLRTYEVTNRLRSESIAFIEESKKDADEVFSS

As to `CCOc1ccc(NC(C)=O)cc1` [PHENACETIN], the IC50 entry in test [1], in test [2], in test [3], in test [4], in test [5] and in test [6] was “Not Active” in each case. Besides, in test [7], the IC50 entry is “Not Active”.
On to `C[C@]12CC[C@@H]3c4ccc(O)cc4CC[C@H]3[C@@H]1CCC2=O` [ESTRONE], for which the IC50 result in test [1], in test [2], in test [3], in test [4], in test [5] and in test [6] was “Not Active” each time. Besides, the IC50 result in test [7] was “Not Active”.
As for `NC1=NC(=O)C(c2ccccc2)O1` (centres undefined) [PEMOLINE], the IC50 entry in test [1], in test [2], in test [3], in test [4], in test [5] and in test [6] was “Not Active” in each case. Moreover, in test [7], the IC50 result is on record as “Not Active”.
As to `CN(C)c1nc(N(C)C)nc(N(C)C)n1` [ALTRETAMINE], the IC50 entry in test [1], in test [2], in test [3], in test [4], in test [5] and in test [6] was “Not Active” throughout. Further, in test [7], the IC50 result was “Not Active”.
For the compound `CCn1cc(C(=O)O)c(=O)c2cc(F)c(N3CCNCC3)cc21` [NORFLOXACIN], the IC50 result in test [1], in test [2], in test [3], in test [4], in test [5] and in test [6] was “Not Active” each time. Moreover, the IC50 result in test [7] was “Not Active”.
With `CCCN1C[C@H](CSC)C[C@@H]2c3cccc4[nH]cc(c34)C[C@H]21` [PERGOLIDE], the IC50 result in test [1] is “Not Active”; in test [2], “Not Active”; in test [3] (read-out: IC50) it was 1930 nM; in test [4], “Not Active”; in test [5], “Not Active”; in test [6], “Not Active”. Moreover, the IC50 result in test [7] was “Not Active”. For the same compound, the Ki in test [3] (read-out: Ki) is 781 nM.
With `C=C(C)C1(O)OC(=O)C=C1OC` (centres undefined) [PENICILLIC ACID], the IC50 entry in test [1], in test [2], in test [3], in test [4], in test [5] and in test [6] was “Not Active” throughout. Besides, the IC50 result in test [7] is reported as “Not Active”.
On to `C[C@H](CS)C(=O)N1CCC[C@H]1C(=O)O` [CAPTOPRIL], for which the IC50 entry in test [1], in test [2], in test [3], in test [4], in test [5] and in test [6] was “Not Active” throughout. Moreover, in test [7], the IC50 entry was “Not Active”.
Regarding `C[C@H]1O[C@@H](O[C@H]2[C@@H](O)C[C@H](O[C@H]3[C@@H](O)C[C@H](O[C@H]4CC[C@@]5(C)[C@H](CC[C@@H]6[C@@H]5C[C@@H](O)[C@]5(C)[C@@H](C7=CC(=O)OC7)CC[C@]65O)C4)O[C@@H]3C)O[C@@H]2C)C[C@H](O)[C@@H]1O` [DIGOXIN], the IC50 entry in test [1], in test [2], in test [3], in test [4], in test [5] and in test [6] was “Not Active” throughout. Moreover, the IC50 result in test [7] was “Not Active”.
As to `CN(C)C(=O)Oc1cc(OC(=O)N(C)C)cc(C(O)CNC(C)(C)C)c1` (centres undefined) [BAMBUTEROL], the IC50 result in test [1], in test [2], in test [3], in test [4], in test [5] and in test [6] was “Not Active” throughout. Besides, the IC50 result in test [7] is given as “Not Active”.
In the case of `CC(C)[C@H]1C(=O)N2CCC[C@H]2[C@]2(O)O[C@](NC(=O)[C@@H]3C=C4c5cccc6[nH]cc(c56)C[C@H]4N(C)C3)(C(C)C)C(=O)N12` [ERGOCORNINE], the IC50 result in test [1] is “Not Active”; in test [2], “Not Active”; in test [3] (read-out: IC50), 11 nM; in test [4], “Not Active”; in test [5] it was “Not Active”; in test [6], “Not Active”. In addition, in test [7], the IC50 result was “Not Active”. Besides, the Ki in test [3] (read-out: Ki) is 4.47 nM.
Regarding `CN(C)CCCN1c2ccccc2Sc2ccccc21` [PROMAZINE], the IC50 entry is “Not Active” in test [1]; “Not Active” in test [2]; 9.24 nM in test [3] (read-out: IC50); “Not Active” in test [4]; “Not Active” in test [5]; “Not Active” in test [6]. The IC50 entry in test [7] was “Not Active”. For the same compound, in test [3] (read-out: Ki), the Ki worked out at 3.74 nM.
In the case of `C[C@](N)(Cc1ccc(O)c(O)c1)C(=O)O` [METHYLDOPA], the IC50 entry in test [1], in test [2], in test [3], in test [4], in test [5] and in test [6] was “Not Active” in each case. Besides, the IC50 entry in test [7] was “Not Active”.
As to `CCOC(=O)C1=C(COCCN)NC(C)=C(C(=O)OC)C1c1ccccc1Cl` (centres undefined) [AMLODIPINE], the IC50 result in test [1], in test [2], in test [3], in test [4], in test [5] and in test [6] was “Not Active” throughout. Moreover, in test [7], the IC50 entry is listed as “Not Active”.
On to LEAD (II) ACETATE, for which the IC50 entry in test [1], in test [2], in test [3], in test [4], in test [5] and in test [6] was “Not Active” throughout. In addition, the IC50 result in test [7] is “Not Active”. Further, the Ki entry in test [1], in test [2], in test [3], in test [4], in test [5] and in test [6] was “Not Active” in each case. In addition, the Ki entry in test [7] is on record as “Not Active”.
As for `CC(O)CO` (centres undefined) [PROPYLENE GLYCOL], the half-inhibitory concentration (IC50) result in test [1], in test [2], in test [3], in test [4], in test [5] and in test [6] was “Not Active” each time. Moreover, the half-inhibitory concentration (IC50) entry in test [7] is given as “Not Active”.
`CCCC1O[C@@H]2C[C@H]3[C@@H]4CCC5=CC(=O)C=C[C@]5(C)[C@H]4[C@@H](O)C[C@]3(C)[C@]2(C(=O)CO)O1` (some centres undefined) [BUDESONIDE]: the IC50 entry in test [1], in test [2], in test [3], in test [4], in test [5] and in test [6] was “Not Active” in each case. The IC50 entry in test [7] is on record as “Not Active”.

The values are drawn from ChEMBL document CHEMBL1909046, “DrugMatrix in vitro pharmacology data”.
